Measured values as given in the supplement of paper PMC10307832.

What was measured:
Experiment in all cases: relative viability (nuclei count vs DMSO), 5 days (fraction); higher = more cells survive
Omipalisib = compound: COc1ncc(-c2ccc3nccc(-c4ccnnc4)c3c2)cc1NS(=O)(=O)c1ccc(F)cc1F [Omipalisib]
Method in brief: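 MetaXpress counted nuclei in 4× images of lung cancer cell lines that had been fixed, permeabilised and Hoechst-stained in one step. Before that, cells in 1536-well plates were kept overnight at 37 °C, pinned with five √10-spaced library-drug doses on vehicle-anchored plates, and cultured 5 days without medium change. Viability takes treated-well nuclei over vehicle-well nuclei and uses the median across plates. Plates were accepted only at control CV below 25% and at least one doubling.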

Omipalisib + Luminespib = compound: COc1ncc(-c2ccc3nccc(-c4ccnnc4)c3c2)cc1NS(=O)(=O)c1ccc(F)cc1F [Omipalisib] + CCNC(=O)c1noc(-c2cc(C(C)C)c(O)cc2O)c1-c1ccc(CN2CCOCC2)cc1 [Luminespib] (partner 0.01 µM)
Method in brief: (§1)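 Each reported value is a median over duplicate plates. It expresses relative viability: treated-well nuclei count divided by vehicle-well nuclei count. Lung cancer cell lines in 1536-well plates were dosed by pin tool a day after seeding, alone with one drug or with a fixed anchor-drug dose plus five library-drug doses (not always all listed) in √10 steps, and nuclei were counted after 5 days.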

Omipalisib + OSI-027 = compound: COc1ncc(-c2ccc3nccc(-c4ccnnc4)c3c2)cc1NS(=O)(=O)c1ccc(F)cc1F [Omipalisib] + COc1cccc2cc(-c3nc([C@H]4CC[C@H](C(=O)O)CC4)n4ncnc(N)c34)[nH]c12 [OSI-027] (partner 0.5 µM)
Method in brief: as §1

Omipalisib + Crizotinib = compound: COc1ncc(-c2ccc3nccc(-c4ccnnc4)c3c2)cc1NS(=O)(=O)c1ccc(F)cc1F [Omipalisib] + C[C@@H](Oc1cc(-c2cnn(C3CCNCC3)c2)cnc1N)c1c(Cl)ccc(F)c1Cl [Crizotinib] (partner 1 µM)
Method in brief: as §1

Omipalisib + AZD7762 = compound: COc1ncc(-c2ccc3nccc(-c4ccnnc4)c3c2)cc1NS(=O)(=O)c1ccc(F)cc1F [Omipalisib] + NC(=O)Nc1cc(-c2cccc(F)c2)sc1C(=O)N[C@H]1CCCNC1 [AZD7762] (partner 0.2 µM)
Method in brief: as §1

Omipalisib + Olaparib = compound: COc1ncc(-c2ccc3nccc(-c4ccnnc4)c3c2)cc1NS(=O)(=O)c1ccc(F)cc1F [Omipalisib] + O=C(c1cc(Cc2n[nH]c(=O)c3ccccc23)ccc1F)N1CCN(C(=O)C2CC2)CC1 [Olaparib] (partner 8 µM)
Method in brief: as §1

Cell Line | relative viability (Omipalisib; 0.0003 µM) | relative viability (Omipalisib; 0.003 µM) | relative viability (Omipalisib; 0.03 µM) | relative viability (Omipalisib + Luminespib; first compound 0.0003 µM) | relative viability (Omipalisib + Luminespib; first compound 0.003 µM) | relative viability (Omipalisib + Luminespib; first compound 0.03 µM) | relative viability (Omipalisib + OSI-027; first compound 0.0003 µM) | relative viability (Omipalisib + OSI-027; first compound 0.003 µM) | relative viability (Omipalisib + OSI-027; first compound 0.03 µM) | relative viability (Omipalisib + Crizotinib; first compound 0.0003 µM) | relative viability (Omipalisib + Crizotinib; first compound 0.003 µM) | relative viability (Omipalisib + Crizotinib; first compound 0.03 µM) | relative viability (Omipalisib + AZD7762; first compound 0.0003 µM) | relative viability (Omipalisib + AZD7762; first compound 0.003 µM) | relative viability (Omipalisib + AZD7762; first compound 0.03 µM) | relative viability (Omipalisib + Olaparib; first compound 0.0003 µM) | relative viability (Omipalisib + Olaparib; first compound 0.003 µM) | relative viability (Omipalisib + Olaparib; first compound 0.03 µM)
LOU-NH91 | 0.999 | 0.784 | 0.65 | 0.345 | 0.386 | 0.337 | 0.705 | 0.58 | 0.503 | 0.737 | 0.65 | 0.504 | 0.772 | 0.566 | 0.515 | 0.909 | 0.852 | 0.617
NCI-H838 | 0.957 | 0.737 | 0.453 | 0.332 | 0.269 | 0.203 | 0.335 | 0.345 | 0.181 | 0.767 | 0.57 | 0.354 | 0.895 | 0.828 | 0.725 | 0.745 | 0.564 | 0.302
A-427 | 0.994 | 0.866 | 0.828 | 0.857 | 0.678 | 0.863 | 0.48 | 0.281 | 0.377 | 0.818 | 0.736 | 0.639 | 0.715 | 0.628 | 0.579 | 0.699 | 0.604 | 0.611
NCI-H650 | 0.876 | 0.745 | 0.51 | 0.81 | 0.592 | 0.378 | 0.447 | 0.384 | 0.315 | 0.671 | 0.472 | 0.338 | 0.817 | 0.766 | 0.7 | 0.366 | 0.33 | 0.245
NCI-H2347 | 0.972 | 0.978 | 0.579 | 0.304 | 0.267 | 0.339 | 0.345 | 0.262 | 0.959 | 0.827 | 0.685 | 0.293 | 0.843 | 0.529 | 0.375 | 0.527 | 0.514 | 0.407
EMC-BAC-2 | 0.848 | 0.613 | 0.549 | 1.07 | 0.711 | 0.58 | 0.347 | 0.266 | 0.239 | 0.744 | 0.665 | 0.395 | 0.989 | 0.719 | 0.515 | 0.391 | 0.407 | 0.252
EKVX | 0.985 | 0.79 | 0.44 | 0.859 | 0.717 | 0.423 | 0.612 | 0.371 | 0.256 | 0.934 | 0.824 | 0.402 | 0.638 | 0.723 | 0.285 | 0.912 | 0.734 | 0.39
NCI-H1651 | 0.928 | 0.851 | 0.595 | 0.64 | 0.648 | 0.565 | 0.55 | 0.632 | 0.482 | 0.749 | 0.762 | 0.569 | 0.521 | 0.434 | 0.359 | 0.177 | 0.177 | 0.172
LCLC-97TM1 | 1.03 | 0.586 | 0.203 | 0.692 | 0.511 | 0.202 | 0.589 | 0.251 | 0.2 | 0.243 | 0.159 | 0.11 | 0.158 | 0.36 | 0.116 | 0.383 | 0.291 | 0.0739
201T | 0.986 | 1.03 | 0.729 | 0.95 | 1.05 | 0.463 | 0.786 | 0.494 | 0.398 | 0.988 | 1.05 | 0.731 | 0.592 | 0.516 | 0.459 | 0.803 | 0.859 | 0.526
NCI-H322M | 0.892 | 0.728 | 0.622 | 0.518 | 0.517 | 0.298 | 0.562 | 0.481 | 0.412 | 0.859 | 0.843 | 0.532 | 0.54 | 0.455 | 0.482 | 0.802 | 0.815 | 0.515
HARA | 0.952 | 0.822 | 0.42 | 0.605 | 0.621 | 0.0924 | 0.47 | 0.19 | 0.161 | 1.09 | 1.02 | 0.395 | 0.384 | 0.461 | 0.334 | 0.699 | 0.512 | 0.214
CAL-12T | 1.12 | 1.1 | 0.594 | 0.319 | 0.194 | 0.107 | 0.753 | 0.404 | 0.232 | 0.574 | 0.676 | 0.436 | 0.705 | 0.906 | 0.615 | 0.76 | 0.691 | 0.349
NCI-H2087 | 1.02 | 0.723 | 0.504 | 0.166 | 0.14 | 0.158 | 0.532 | 0.309 | 0.251 | 0.795 | 0.935 | 0.734 | 1.29 | 1.55 | 0.772 | 0.602 | 0.344 | 0.291
NCI-H727 | 1.05 | 0.68 | 0.544 | 0.35 | 0.281 | 0.395 | 0.596 | 0.439 | 0.393 | 0.707 | 0.649 | 0.391 | 0.627 | 0.486 | 0.412 | 0.754 | 0.612 | 0.598
H3255 | 0.93 | 0.85 | 0.51 | 0.942 | 0.786 | 0.613 | 0.546 | 0.45 | 0.299 | 0.859 | 0.811 | 0.421 | 1 | 0.869 | 0.566 | 0.559 | 0.526 | 0.409
LXF-289 | 1.04 | 1.08 | 0.943 | 0.536 | 0.456 | 0.232 | 0.764 | 0.493 | 0.357 | 0.846 | 0.924 | 0.712 | 1.11 | 1.26 | 0.911 | 0.943 | 1.05 | 0.455
